# Patent publication US20210261512A1, “NOVEL COMPOUNDS” (INFLAZOME LIMITED, priority 2018, published 2021)
# Molecular target: NLRP3 (Homo sapiens, UniProt Q96P20)
# Experiment: THP-1 cells pyroptosis assay
# Assay type: cell-based
# Design: Seed THP-1 cells (25,000 cells/well) containing 1.0 μg/ml LPS; host or cells: THP-1
# Conditions: LPS 1.0 μg/ml, nigericin 5 μM, resazurin readout, 10 μM top dose (Example 2: top dose of 30 μM)
# Description: THP-1 cells (ATCC #TIB-202) were grown in RPMI containing L-glutamine (Gibco #11835) supplemented with imM sodium pyruvate (Sigma #S8636) and penicillin (100 units/ml)/streptomycin (0.1 mg/ml) (Sigma #P4333) in 10% Fetal Bovine Serum (FBS) (Sigma #F0804). The cells were routinely passaged and grown to confluency (˜10^6 cells/ml). On the day of the experiment, THP-1 cells were harvested and resuspended into RPMI medium (without FBS). The cells were then counted and viability (>90%) checked by Trypan blue (Sigma #T8154). Appropriate dilutions were made to give a concentration of 625,000 cells/ml. To this diluted cell solution was added LPS (Sigma #L4524) to give a 1 μg/ml Final Assay Concentration (FAC). 40 μl of the final preparation was aliquoted into each well of a 96-well plate. The plate thus prepared was used for compound screening.
# The following method step-by-step assay was followed for compound screening. • 1. Seed THP-1 cells (25,000 cells/well) containing 1.0 μg/ml LPS in 40 μl of RPMI medium (without FBS) in 96-well, black walled, clear bottom cell culture plates coated with poly-D-lysine (VWR #734-0317) • 2. Add 5 μl compound (8 points four-fold dilution or 8 points half-log dilution, with 10 μM top dose, unless stated otherwise) or vehicle (DMSO 0.1% FAC) to the appropriate wells • 3. Incubate for 3 hrs at 37° C. and 5% CO2 • 4. Add 5 μl nigericin (Sigma #N7143) (FAC 5 μM) to all wells • 5. Incubate for 1 hr at 37° C. and 5% CO2 • 6. At the end of the incubation period, spin plates at 300×g for 3 mins and remove supernatant • 7. Then add 50 μl of resazurin (Sigma #R^7017) (FAC 100 μM resazurin in RPMI medium without FBS) and incubate plates for a further 1-2 hrs at 37° C. and 5% CO2 • 8. Plates were read in an Envision reader at Ex 560 nm and Em 590 nm • 9. IC50 data is fitted to a non-linear regression equation (log inhibitor vs response-variable slope 4-parameters)
# NLRP3, sequence (Q96P20 whole entry): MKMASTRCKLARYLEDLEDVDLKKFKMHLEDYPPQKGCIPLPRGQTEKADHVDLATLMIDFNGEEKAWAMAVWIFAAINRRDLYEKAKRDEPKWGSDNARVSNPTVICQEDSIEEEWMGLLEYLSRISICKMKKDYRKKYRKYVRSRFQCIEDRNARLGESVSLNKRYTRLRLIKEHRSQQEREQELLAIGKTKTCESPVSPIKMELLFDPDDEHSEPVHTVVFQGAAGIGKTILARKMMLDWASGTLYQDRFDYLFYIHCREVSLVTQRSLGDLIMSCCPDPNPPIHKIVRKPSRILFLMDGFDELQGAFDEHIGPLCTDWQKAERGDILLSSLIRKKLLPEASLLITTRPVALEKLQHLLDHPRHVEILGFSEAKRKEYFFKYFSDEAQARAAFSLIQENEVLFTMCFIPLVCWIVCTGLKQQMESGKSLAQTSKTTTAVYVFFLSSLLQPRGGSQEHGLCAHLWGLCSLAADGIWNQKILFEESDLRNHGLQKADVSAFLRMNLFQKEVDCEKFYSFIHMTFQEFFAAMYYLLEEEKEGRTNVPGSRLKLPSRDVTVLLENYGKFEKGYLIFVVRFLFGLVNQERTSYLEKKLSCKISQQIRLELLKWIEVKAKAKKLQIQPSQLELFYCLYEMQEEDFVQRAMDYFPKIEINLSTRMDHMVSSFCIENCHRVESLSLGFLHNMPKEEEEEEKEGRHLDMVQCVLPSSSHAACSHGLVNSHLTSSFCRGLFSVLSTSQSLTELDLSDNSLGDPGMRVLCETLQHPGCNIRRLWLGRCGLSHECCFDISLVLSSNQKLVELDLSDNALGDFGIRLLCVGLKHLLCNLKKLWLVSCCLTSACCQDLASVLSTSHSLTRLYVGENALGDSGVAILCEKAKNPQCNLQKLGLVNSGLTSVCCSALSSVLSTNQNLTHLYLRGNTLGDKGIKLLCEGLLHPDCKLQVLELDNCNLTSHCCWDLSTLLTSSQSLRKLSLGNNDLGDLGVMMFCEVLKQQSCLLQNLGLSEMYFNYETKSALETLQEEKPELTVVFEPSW
row,IC50 [µM],Structure (SMILES)
1,≤ 5,"COc1cc(-c2cc(C#N)c3c(c2Nc2nnc(S(=O)(=O)N4CCC(N(C)C)CC4)[nH]2)CCC3)ccn1 [Example 230, 7-((5-((4-(dimethylamino)piperidin-1-yl)sulfonyl)-4H-1,2,4-triazol-3-yl)amino)-6-(2-methoxypyridin-4-yl)-2,3-dihydro-1H-indene-4-carbonitrile]"
2,≤ 10,"CN(C)C1CCN(S(=O)(=O)c2nnc(Nc3c(-c4ccnn4C)ccc4c3CCC4)[nH]2)CC1 [Example 205, N,N-dimethyl-1-((5-((5-(1-methyl-1H-pyrazol-5-yl)-2,3-dihydro-1H-inden-4-yl)amino)-4H-1,2,4-triazol-3-yl)sulfonyl)piperidin-4-amine]"
3,≤ 5,"O=S(=O)(c1cccnc1)c1nnc(Nc2c3c(cc4c2CCC4)CCC3)[nH]1 [Example 177, N-(1,2,3,5,6,7-hexahydro-s-indacen-4-yl)-5-(pyridin-3-ylsulfonyl)-4H-1,2,4-triazol-3-amine]"
4,≤ 10,"CN1CCCC1CS(=O)(=O)c1nnc(Nc2c3c(cc4c2CCC4)CCC3)[nH]1 (stereo not drawn) [Example 61, N-(1,2,3,5,6,7-hexahydro-s-indacen-4-yl)-3-(((1-methylpyrrolidin-2-yl)methyl)sulfonyl)-1H-1,2,4-triazol-5-amine]"
5,≤ 5,"O=S(=O)(c1cccc(F)c1)c1nnc(Nc2c3c(cc4c2CCC4)CCC3)[nH]1 [Example 178, 5-((3-fluorophenyl)sulfonyl)-N-(1,2,3,5,6,7-hexahydro-s-indacen-4-yl)-4H-1,2,4-triazol-3-amine]"
6,≤ 10,"O=C1CC2(CN1)CN(S(=O)(=O)c1nnc(Nc3c4c(cc5c3CCC5)CCC4)[nH]1)C2 [Example 332, 2-((5-((1,2,3,5,6,7-hexahydro-s-indacen-4-yl)amino)-4H-1,2,4-triazol-3-yl)sulfonyl)-2,6-diazaspiro[3.4]octan-7-one]"
7,≤ 5,"O=S(=O)(CCCNC1CC1)c1nnc(Nc2c3c(cc4c2CCC4)CCC3)[nH]1 [Example 56, 5-((3-(cyclopropylamino)propyl)sulfonyl)-N-(1,2,3,5,6,7-hexahydro-s-indacen-4-yl)-4H-1,2,4-triazol-3-amine]"
8,≤ 10,"COc1cc(-c2ccc3c(c2Nc2nnc(S(C)(=O)=O)[nH]2)CCC3)ccn1 [Example 361, N-(5-(2-methoxypyridin-4-yl)-2,3-dihydro-1H-inden-4-yl)-5-(methylsulfonyl)-4H-1,2,4-triazol-3-amine]"
9,≤ 10,"O=S(=O)(CC1CCOC1)c1nnc(Nc2c3c(cc4c2CCC4)CCC3)[nH]1 (stereo not drawn) [Example 66, N-(1,2,3,5,6,7-hexahydro-s-indacen-4-yl)-3-(((tetrahydrofuran-3-yl)methyl)sulfonyl)-1H-1,2,4-triazol-5-amine]"
10,≤ 5,"CC(C)n1cc(S(=O)(=O)c2nnc(Nc3c4c(cc5c3CCC5)CCC4)[nH]2)cn1 [Example 338, N-(1,2,3,5,6,7-hexahydro-s-indacen-4-yl)-5-((1-isopropyl-1H-pyrazol-4-yl)sulfonyl)-4H-1,2,4-triazol-3-amine]"
11,≤ 10,"CC(C)n1ccc(S(=O)(=O)c2nnc(Cc3c4c(cc5c3CCC5)CCC4)[nH]2)n1 [Example 30, 3-((1,2,3,5,6,7-hexahydro-s-indacen-4-yl)methyl)-5-((1-isopropyl-1H-pyrazol-3-yl)sulfonyl)-4H-1,2,4-triazole]"
12,≤ 5,"Cc1cc2c(c(Nc3nnc(S(C)(=O)=O)[nH]3)c1-c1ccnc(O[C@H]3CC[C@H](N(C)C)CC3)c1)CCC2 [Example 365, N-(5-(2-(((1r,4r)-4-(dimethylamino)cyclohexyl)oxy)pyridin-4-yl)-6-methyl-2,3-dihydro-1H-inden-4-yl)-5-(methylsulfonyl)-4H-1,2,4-triazol-3-amine]"
13,≤ 5,"CS(=O)(=O)c1nnc(Nc2c(-c3ccnc(Oc4ccccc4)c3)ccc3c2CCC3)[nH]1 [Example 340, 5-(methylsulfonyl)-N-(5-(2-phenoxypyridin-4-yl)-2,3-dihydro-1H-inden-4-yl)-4H-1,2,4-triazol-3-amine]"
14,≤ 5,"O=S(=O)(c1cnn(CCO)c1)c1nnc(Nc2c3c(cc4c2CCC4)CCC3)[nH]1 [Example 335, 2-(4-((5-((1,2,3,5,6,7-hexahydro-s-indacen-4-yl)amino)-4H-1,2,4-triazol-3-yl)sulfonyl)-1H-pyrazol-1-yl)ethanol]"
15,≤ 5,"NC(=O)c1ccccc1S(=O)(=O)c1n[nH]c(Nc2c3c(cc4c2CCC4)CCC3)n1 [Example 311, 2-((5-((1,2,3,5,6,7-hexahydro-s-indacen-4-yl)amino)-1H-1,2,4-triazol-3-yl)sulfonyl)benzamide]"
16,≤ 5,"O=S(=O)(NC1CCCNC1)c1nnc(Nc2c3c(cc4c2CCC4)CCC3)[nH]1 (stereo not drawn) [Example 112, 5-((1,2,3,5,6,7-hexahydro-s-indacen-4-yl)amino)-N-(piperidin-3-yl)-4H-1,2,4-triazole-3-sulfonamide]"
17,≤ 1,"O=S(=O)(c1ccn(CCO)n1)c1nnc(Nc2c3c(cc4c2CCC4)CCC3)[nH]1 [Example 334, 2-(3-((5-((1,2,3,5,6,7-hexahydro-s-indacen-4-yl)amino)-4H-1,2,4-triazol-3-yl)sulfonyl)-1H-pyrazol-1-yl)ethanol]"
18,≤ 10,"O=S(=O)(Nc1ccccc1)c1nnc(Nc2c3c(cc4c2CCC4)CCC3)[nH]1 [Example 85, 5-((1,2,3,5,6,7-hexahydro-s-indacen-4-yl)amino)-N-phenyl-4H-1,2,4-triazole-3-sulfonamide]"
19,≤ 5,"O=S(=O)(CCCN1CCOCC1)c1nnc(Nc2c3c(cc4c2CCC4)CCC3)[nH]1 [Example 50, N-(1,2,3,5,6,7-hexahydro-s-indacen-4-yl)-5-((3-morpholinopropyl)sulfonyl)-4H-1,2,4-triazol-3-amine]"
20,≤ 5,"O=S(=O)(NCc1ccncc1)c1nnc(Nc2c3c(cc4c2CCC4)CCC3)[nH]1 [Example 96, 5-((1,2,3,5,6,7-hexahydro-s-indacen-4-yl)amino)-N-(pyridin-4-ylmethyl)-4H-1,2,4-triazole-3-sulfonamide]"
21,≤ 5,"CC(C)(O)CCNS(=O)(=O)c1nnc(Nc2c3c(cc4c2CCC4)CCC3)[nH]1 [Example 116, 5-((1,2,3,5,6,7-hexahydro-s-indacen-4-yl)amino)-N-(3-hydroxy-3-methylbutyl)-4H-1,2,4-triazole-3-sulfonamide]"
22,≤ 5,"COCC1CCN(S(=O)(=O)c2nnc(Nc3c4c(cc5c3CCC5)CCC4)[nH]2)C1 (stereo not drawn) [Example 283, N-(1,2,3,5,6,7-hexahydro-s-indacen-4-yl)-5-((3-(methoxymethyl)pyrrolidin-1-yl)sulfonyl)-4H-1,2,4-triazol-3-amine]"
23,≤ 5,"Cc1cc2c(c(Nc3nnc(S(=O)(=O)N4CCC(N(C)C)CC4)[nH]3)c1-c1ccnc(OC3CCN(C)CC3)c1)CCC2 [Example 316, N,N-dimethyl-1-((5-((6-methyl-5-(2-((1-methylpiperidin-4-yl)oxy)pyridin-4-yl)-2,3-dihydro-1H-inden-4-yl)amino)-4H-1,2,4-triazol-3-yl)sulfonyl)piperidin-4-amine]"
24,≤ 1,"CC(c1cc(S(=O)(=O)c2nnc(Nc3c4c(cc5c3CCC5)CCC4)[nH]2)nn1C(C)C)N(C)C (stereo not drawn) [Example 8, 5-((5-(1-(dimethylamino)ethyl)-1-isopropyl-1H-pyrazol-3-yl)sulfonyl)-N-(1,2,3,5,6,7-hexahydro-s-indacen-4-yl)-4H-1,2,4-triazol-3-amine]"
